In ChEMBL document CHEMBL1153765, “Bioactive 5,6-dihydro-alpha-pyrone derivatives from Hyptis brevipes” (2009) one finds ED50, Activity and EC50 data, which are given here for 9 compounds.

The structures appear in SMILES notation. The source made the active and inactive calls. The rule behind the calls is not given here. A value given as a limit tells only on which side of the number the result lay.

Experiment [1] has as its target T1, Nuclear factor NF-kappa-B p105 subunit (Homo sapiens) (UniProt P19838).
T1 sequence (whole entry): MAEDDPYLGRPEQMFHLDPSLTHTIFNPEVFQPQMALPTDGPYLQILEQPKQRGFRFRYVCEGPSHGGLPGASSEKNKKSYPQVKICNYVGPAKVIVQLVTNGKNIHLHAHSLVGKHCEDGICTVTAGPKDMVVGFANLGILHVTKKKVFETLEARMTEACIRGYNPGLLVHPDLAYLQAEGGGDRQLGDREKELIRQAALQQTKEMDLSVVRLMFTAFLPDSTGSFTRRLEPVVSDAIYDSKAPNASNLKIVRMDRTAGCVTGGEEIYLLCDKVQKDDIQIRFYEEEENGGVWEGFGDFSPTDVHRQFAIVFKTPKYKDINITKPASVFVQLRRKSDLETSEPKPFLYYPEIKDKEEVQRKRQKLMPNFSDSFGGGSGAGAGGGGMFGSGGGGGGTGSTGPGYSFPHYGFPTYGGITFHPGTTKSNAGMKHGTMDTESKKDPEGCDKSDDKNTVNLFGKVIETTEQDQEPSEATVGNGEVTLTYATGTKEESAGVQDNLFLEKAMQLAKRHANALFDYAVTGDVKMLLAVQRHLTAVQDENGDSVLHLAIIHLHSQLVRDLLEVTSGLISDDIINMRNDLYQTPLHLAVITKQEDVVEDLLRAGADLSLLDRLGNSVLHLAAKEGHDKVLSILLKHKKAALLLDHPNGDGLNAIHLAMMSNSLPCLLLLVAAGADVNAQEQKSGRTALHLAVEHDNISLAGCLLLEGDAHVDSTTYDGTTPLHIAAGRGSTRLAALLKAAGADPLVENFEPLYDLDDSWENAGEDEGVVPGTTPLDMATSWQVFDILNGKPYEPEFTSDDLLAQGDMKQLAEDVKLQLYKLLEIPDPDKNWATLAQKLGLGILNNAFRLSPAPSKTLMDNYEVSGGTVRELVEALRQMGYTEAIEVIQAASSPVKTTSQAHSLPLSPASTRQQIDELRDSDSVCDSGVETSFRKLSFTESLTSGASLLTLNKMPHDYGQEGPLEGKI
Nature of the experiment: Inhibition of NF kappaB p50 subunit signaling pathway in human HeLa cells by biotinylated-ELISA. It counts as cell-based. (An ELISA detects its analyte on a solid surface through an enzyme-linked reagent.)

The subject of another experiment is Lu1. Nature of the experiment: Cytotoxicity against human Lu1 cells. It counts as functional, cell-based.
A further experiment relates to MCF7. Nature of the experiment: Cytotoxicity against human MCF7 cells. The following applies: read-out: ED50 (the source's name). The experiment is classed as functional.
The subject of the next experiment is HL-60. Briefly: Inhibition of chymotrypsin-like activity of proteasome in human HL60 cells assessed as free AMC level after 10 mins. The experiment is classed as subcellular.
Experiment [2] concerns HT-29. Briefly: Induction of apoptosis in human HT-29 cells assessed as change in mitochondrial transmembrane potential after 2 hrs by JC1 staining based fluorescence assay. It counts as functional. As to conditions: HT-29, 2 h, read-out: ED50 (the source's name).
For experiment [3], the system named is HT-29. Briefly: Cytotoxicity against human HT-29 cells. The experiment is classed as functional. As to conditions: read-out: ED50 (the source's name).

`COc1ccc([C@@]23Oc4cc(OC)cc(OC)c4[C@]2(O)[C@H](O)[C@H](C(=O)N(C)C)[C@H]3c2ccccc2)cc1` showed an ED50 in experiment [1] of 2 µM.
For `CC(=O)O[C@@H]([C@H]1C[C@@H]1C(=O)C(C)OC(=O)/C=C/c1ccc(O)c(O)c1)[C@H]1CC=CC(=O)O1` (stereo not given in full) [BREVIPOLIDE E], in the experiment on Lu1, the result was inactive. Also, the EC50 in the experiment on MCF7 was > 10 µM. In addition, in experiment [1], the ED50 was > 50 µM.
As to `CC(OC(=O)/C=C/c1ccc(O)c(O)c1)C(=O)[C@H]1C[C@@H]1[C@H](O)[C@H]1CC=CC(=O)O1` (stereo not given in full) [BREVIPOLIDE C], the ED50 was 38 µM in the experiment on HL-60 and > 50 µM in experiment [1]. Further, the result in the experiment with Lu1 was inactive. Also, the EC50 in the experiment on MCF7 was > 10 µM.
Regarding `CC(OC(=O)/C=C/c1ccc(O)cc1)C(=O)[C@H]1C[C@@H]1[C@H](O)[C@H]1CC=CC(=O)O1` (stereo not given in full), in the experiment on Lu1, the result was inactive. The EC50 with MCF7 turned out to be 3.6 µM; in the experiment with HT-29 [2], 0.075 µM. Besides, the ED50 in experiment [1] came out at 15.3 µM.
As to `CC(OC(=O)/C=C\c1ccc(O)c(O)c1)C(=O)[C@H]1C[C@@H]1[C@H](O)[C@H]1CC=CC(=O)O1` (stereo not given in full) [BREVIPOLIDE D], the ED50 is 44.5 µM in the experiment with HL-60 and > 50 µM in experiment [1]. Also, the outcome in the experiment with Lu1 was inactive. Further, in the experiment on MCF7, the EC50 was > 10 µM.
Turning to `CC(OC(=O)/C=C\c1ccc(O)cc1)C(=O)[C@H]1C[C@@H]1[C@H](O)[C@H]1CC=CC(=O)O1` (stereo not given in full) [BREVIPOLIDE F], in the experiment with Lu1, the result was inactive. The EC50 with MCF7 amounted to 6.7 µM. The ED50 in experiment [1] is > 50 µM.
As to `CC(=O)O[C@@H]([C@H]1C[C@@H]1C(=O)C(C)OC(=O)/C=C/c1ccc(O)cc1)[C@H]1CC=CC(=O)O1` (stereo not given in full) [BREVIPOLIDE A], in the experiment with Lu1, the outcome was inactive. The EC50 was > 10 µM in the experiment with MCF7 and 5.8 µM in the experiment on HT-29 [3]. In addition, the ED50 in experiment [1] was > 50 µM.
Turning to `CC(=O)O[C@@H]([C@H]1C[C@@H]1C(=O)C(C)OC(=O)/C=C\c1ccc(O)cc1)[C@H]1CC=CC(=O)O1` (stereo not given in full) [BREVIPOLIDE B], the outcome in the experiment on Lu1 was inactive. Besides, the EC50 in the experiment on MCF7 and in the experiment on HT-29 [3] was 6.1 µM in each case. The ED50 in experiment [1] is > 50 µM.
In the case of `COc1ccc(-c2oc3cc(OC)c(O)c(O)c3c(=O)c2OC)cc1O`, the ED50 is 17 µM with HL-60 and > 50 µM in experiment [1]. Besides, the outcome in the experiment on Lu1 was inactive.
